Patent US20070059242A1, “METHODS TO IDENTIFY THERAPEUTIC AGENTS” (priority 2005, published 2007)

What was measured:
[1] = system: T-lymphocyte cell line (Jurkat E6.1); test: LDH release cytotoxicity assay, Jurkat; type: cell-based; conditions: Homo sapiens; Jurkat E6.1; LDH release, 0-100 μM, 18 h
Protocol: Cytotoxicity assays. WI-L2 human B-lymphocyte line, HAAE-1 human abdominal aortic endothelial line, MH-S murine alveolar macrophage line, and J774A.1 murine tissue macrophage line were obtained from the ATCC. Human aortic endothelial cells (HAEC) and human vascular smooth muscle cells (VSMS) were obtained from Cambrex Bio Science. Jurkat E6-1T-lymphocytes were kindly provided by Dr. J. Kaye (The Scripps Research Institute). Cells were cultured in ATCC-recommended media with 10% fetal calf serum. Cells were incubated in a controlled atmosphere at 37° C., with 5 or 7% CO2. For lactate dehydrogenase (LDH) release assays, adherent cells were harvested either by addition of 0.05% trypsin/EDTA or by scraping. The cells obtained were seeded onto 96-well microtiter plates (25,000 cells/well) and allowed to recover for 24-48 h. […] Cytotoxicity was then determined by measuring lactate dehydrogenase (LDH) release from cells in culture. […] 100% Cytotoxicity was defined as the maximum amount of LDH released by dead cells as shown by trypan blue exclusion, or the highest amount of LDH detected upon lysis of cells by 0.9% Triton X-100. The IC50 values were determined by comparison of the raw duplicate data for concentration versus cytotoxicity (%) to non-linear regression analysis (Hill plot) using Graphpad v3.0 software for Macintosh. […]

[2] = Loss of extractable 5a from stored plasma; conditions: preliminary investigations
Protocol: Plasma samples were obtained from patients (n=8) who were scheduled to undergo carotid endarterectomy within 24 h. […] Control plasma samples were obtained from random patients (n=15) attending a general medical clinic and were analyzed 7 days after collection. In a typical procedure, plasma in EDTA (1 ml) was washed with dichloromethane (DCM, 3×1 mL). The combined organic fractions were evaporated in vacuo. The residue was dissolved in methanol (0.9 mL) and a solution of 2,4-dinitrophenyl hydrazine (100 μL, 0.01 M, Lancaster) and 1N HCl in ethanol was added. Nitrogen was bubbled through the solution for 5 min and then the solution was stirred for 2 h. The resultant solution was filtered through a 0.22 μm filter and the filtrate was analyzed by the HPLC assay vide supra.

CC(C)CCC[C@@H](C)[C@H]1CCC2C3C(CC[C@@]21C)[C@@]1(C)CC[C@H](O)C[C@@]1(O)[C@@H]3C=O (stereo partly drawn) [5a, 3β-Hydroxy-5β-hydroxy-B-norcholestane-6β-carboxaldehyde]
IC50 [1]: 12.6 ± 1.9 µM
decrease of amount that can be extracted from plasma [2]: about 5 % per day
